Results: patent US20260265244A1, “HETEROCYCLIC COMPOUNDS AS STING ANTAGONISTS” (Boehringer Ingelheim International GmbH, priority 2022, published 2026)

Legend:
human STING WT (R232) = target: T1, human STING WT (R232) (Homo sapiens, UniProt Q86WV6, H232R); assay: Human STING HTRF binding assay (competitive, Cisbio 64BDSTGPEG)
T1 construct: purchased Cisbio 64BDSTGPEG
Method in brief: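 Competitive HTRF: 6His-tagged human STING WT R232 binding domain (residues 138-379) with anti-6His Cryptate antibody and d2-labeled STING ligand, 180 min at room temperature, 1% DMSO, 8 concentrations from 10 μM or 1 μM top in ~1:5 steps. HTRF ratios were calibrated to a cGAMP standard curve and IC50 obtained by 4-parameter logistic fit.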

[1] = target: T2, cGAMP binding domain of wild-type (GRR) human STING, residues 155-341 (Homo sapiens, UniProt Q86WV6, H232R); assay: Increase of stability of STING protein against thermal denaturation, Differential Scanning Fluorimetry (DSF)
T2 construct: His-TEV-hSTING (WT); TEV protease cleavage site (N); made in house; host or cells: E. coli BL21 DE3
T2 sequence (Q86WV6 with tags, fused parts or gaps H232R): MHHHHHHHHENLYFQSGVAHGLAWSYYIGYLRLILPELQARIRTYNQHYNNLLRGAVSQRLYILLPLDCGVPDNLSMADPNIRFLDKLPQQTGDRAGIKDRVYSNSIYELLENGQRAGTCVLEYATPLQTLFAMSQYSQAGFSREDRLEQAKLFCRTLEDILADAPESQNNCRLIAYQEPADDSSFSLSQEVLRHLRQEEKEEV
Method in brief: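 3 µM His-tagged protein with 100 uM compound, 5×SYPRO Orange, 2% DMSO in 20 mM Tris, 150 mM NaCl, pH7.5; 15–95 °C ramp in 0.5 °C steps (15 s/cycle). Tm from Boltzmann fit of the dye melt curve, duplicates averaged, repeated if SD>1.5 °C; ΔTm = Tm with compound minus Tm of protein alone.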

T1 sequence (Q86WV6 138-379 H232R): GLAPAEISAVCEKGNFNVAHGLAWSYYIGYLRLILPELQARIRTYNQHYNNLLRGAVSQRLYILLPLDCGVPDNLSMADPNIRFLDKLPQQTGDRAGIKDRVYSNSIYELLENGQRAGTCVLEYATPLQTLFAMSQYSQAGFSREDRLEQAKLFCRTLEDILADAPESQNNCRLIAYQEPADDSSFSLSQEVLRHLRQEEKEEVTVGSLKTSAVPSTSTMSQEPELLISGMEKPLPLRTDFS

IC50 (human STING WT (R232)) | DSF [1] | Compound
9.3 nM | 29 K | Cc1nc2nn(CC(F)F)cc2cc1-n1nc(-c2cccc3nn(C[C@H](O)c4ccccc4)cc23)c(C(C)C)c1C [Example 103, (1R)-2-(4-{1-[2-(2,2-difluoroethyl)-6-methyl-2H-pyrazolo[3,4-b]pyridin-5-yl]-5-methyl-4-(propan-2-yl)-1H-pyrazol-3-yl}-2H-indazol-2-yl)-1-phenylethan-1-ol]
2 nM | 31 K | Cn1c(-c2cc3cn(CCC#N)nc3nc2C2CC2)nc(-c2cccc3nn(C[C@H](O)c4ccccc4)cc23)c1C1CC1 [Example 104, 3-[6-cyclopropyl-5-(5-cyclopropyl-4-{2-[(2R)-2-hydroxy-2-phenylethyl]-2H-indazol-4-yl}-1-methyl-1H-imidazol-2-yl)-2H-pyrazolo[3,4-b]pyridin-2-yl]propanenitrile]
78.1 nM | 24 K | Cc1nc2cc(C)c(-n3nc(-c4cccc5nn(C[C@H](O)c6ccccc6)cc45)c(C(C)C)c3C)cc2[nH]1 [Example 105, (1R)-2-{4-[1-(2,5-dimethyl-1H-1,3-benzodiazol-6-yl)-5-methyl-4-(propan-2-yl)-1H-pyrazol-3-yl]-2H-indazol-2-yl}-1-phenylethan-1-ol]
3.2 nM | 28 K | Cc1c(C(C)C)c(-c2cccc3nn(C[C@H](O)c4ccccc4)cc23)nn1-c1cc2cn(C)nc2nc1CO [Example 106, (1R)-2-(4-{1-[6-(hydroxymethyl)-2-methyl-2H-pyrazolo[3,4-b]pyridin-5-yl]-5-methyl-4-(propan-2-yl)-1H-pyrazol-3-yl}-2H-indazol-2-yl)-1-phenylethan-1-ol]
3.8 nM | 31 K | CCc1nc2nn(C)cc2cc1-c1nc(-c2cccc3nn(C[C@H](F)c4ccccc4)cc23)c(C2CC2)n1C [Example 107, 4-(5-cyclopropyl-2-{6-ethyl-2-methyl-2H-pyrazolo[3,4-b]pyridin-5-yl}-1-methyl-1H-imidazol-4-yl)-2-[(2R)-2-fluoro-2-phenylethyl]-2H-indazole]
5.8 nM | 27 K | Cc1nc2nn(C)cc2cc1-n1nc(-c2cccc3nn(C[C@H](OCC(N)=O)c4ccccc4)cc23)c(C(C)C)c1C [Example 108, 2-[(1R) -2-[4-(1-{2,6-dimethyl-2H-pyrazolo[3,4-b]pyridin-5-yl}-5-methyl-4-(propan-2-yl)-1H-pyrazol-3-yl)-2H-indazol-2-yl]-1-phenylethoxy]acetamide]
18.8 nM | 27 K | CC(C)c1c(-c2cccc3nn(C[C@H](O)c4ccccc4)cc23)nc(-c2cc3cn(C)nc3cc2OC(F)(F)F)n1C [Example 109, (1R)-2-(4-{1-methyl-2-[2-methyl-6-(trifluoromethoxy)-2H-indazol-5-yl]-5-(propan-2-yl)-1H-imidazol-4-yl}-2H-indazol-2-yl)-1-phenylethan-1-ol]
8.3 nM | 29 K | Cn1cc2cc(-c3nc(-c4cccc5nn(C[C@H](O)c6ccccc6)cc45)c(C4CC4)n3C)c(C3CC3(F)F)nc2n1 (stereo partly drawn) [Example 110, (1R)-2-(4-{5-cyclopropyl-2-[6-(2,2-difluorocyclopropyl)-2-methyl-2H-pyrazolo[3,4-b]pyridin-5-yl]-1-methyl-1H-imidazol-4-yl}-2H-indazol-2-yl)-1-phenylethan-1-ol]
25.2 nM | 24 K | Cc1c(C(C)C)c(-c2cccc3nn(C[C@H](O)c4ccccc4)cc23)nn1-c1cc2cn(C)nc2nc1C1CCCN1 (stereo partly drawn) [Example 111, (1R)-2-(4-{5-Methyl-1-[2-methyl-6-(pyrrolidin-2-yl)-2H-pyrazolo[3,4-b]pyridin-5-yl]-4-(propan-2-yl)-1H-pyrazol-3-yl}-2H-indazol-2-yl)-1-phenylethan-1-ol]
31.7 nM | 23 K | Cc1c(C(C)C)c(-c2cccc3nn(C[C@H](O)c4ccccc4)cc23)nn1-c1cc2cn(C)nc2nc1CN(C)C [Example 112]
62.8 nM | 23 K | Cc1c(C(C)C)c(-c2cccc3nn(C[C@H](O)c4ccccc4)cc23)nn1-c1cc2cn(C)nc2nc1C(C)(C)C [Example 113, (1R)-2-[4-(1-{6-tert-butyl-2-methyl-2H-pyrazolo[3,4-b]pyridin-5-yl}-5-methyl-4-(propan-2-yl)-1 H-pyrazol-3-yl)-2H-indazol-2-yl]-1-phenylethan-1-ol]
